What was measured:
[1] = tested on: ALOMY; experiment: Pre-emergence herbicidal action against ALOMY; assay type: in vivo, Alopecurus myosuroides; details: 80 g/ha, pre-emergence, scored visually after 3 weeks vs untreated controls (100% = plants have died, 0% = like control plants)
From the text: (§1) Seeds of monocotyledonous and dicotyledonous weed plants and crop plants are laid out in sandy loam soil in wood-fiber pots and covered with soil. The compounds of the invention, formulated in the form of wettable powders (WP) or as emulsion concentrates (EC), are then applied to the surface of the covering soil in the form of an aqueous suspension or emulsion at a water application rate equivalent to 600 to 800 l/ha, with addition of 0.2% wetting agent. After the treatment, the pots are placed in a greenhouse and kept under good growth conditions for the trial plants. The damage to the test plants is scored visually after a test period of 3 weeks by comparison with untreated controls (herbicidal activity in percent (%): 100% activity=the plants have died, 0% activity=like control plants). […] The tables below illustrate, in an illustrative manner, the post-emergence herbicidal action of the compounds of the invention, the herbicidal activity being stated in percent.

[2] = tested on: AMARE; experiment: Post-emergence herbicidal action against AMARE; assay type: in vivo, Amaranthus retroflexus; details: 20 g/ha, visual assessment about 3 weeks after treatment, 100% = plants have died, 0% = like control plants; for pest or weed control at 20 g/ha: Amaranthus retroflexus, 504 h
Description: (§2) Seeds of monocotyledonous and dicotyledonous weed and crop plants are laid out in sandy loam soil in wood-fiber pots, covered with soil and cultivated in a greenhouse under good growth conditions. 2 to 3 weeks after sowing, the test plants are treated at the one-leaf stage. The compounds of the invention, formulated in the form of wettable powders (WP) or as emulsion concentrates (EC), are then sprayed onto the green parts of the plants in the form of an aqueous suspension or emulsion at a water application rate equivalent to 600 to 800 l/ha, with addition of 0.2% wetting agent. After the test plants have been left to stand in the greenhouse under optimal growth conditions for about 3 weeks, the action of the preparations is assessed visually in comparison to untreated controls (herbicidal action in percent (%): 100% activity=the plants have died, 0% activity=like control plants). […] The tables below illustrate, in an illustrative manner, the post-emergence herbicidal action of the compounds of the invention, the herbicidal activity being stated in percent.

[3] = tested on: VIOTR; experiment: Pre-emergence herbicidal action against VIOTR; assay type: in vivo, Viola tricolor; details: for pest or weed control at 80 g/ha: Viola tricolor, 504 h
From the text: as §1

[4] = tested on: SETVI; experiment: Pre-emergence herbicidal action against SETVI; assay type: in vivo, Setaria viridis; details: dosage 80 g/ha
From the text: as §1

[5] = tested on: ABUTH; experiment: Pre-emergence herbicidal action against ABUTH; assay type: in vivo, Abutilon theophrasti; details: for Pre-emergence action against ABUTH (herbicidal activity) / pest or weed control at 80 g/ha: 80 g/ha, scored visually after 3 weeks vs untreated controls (100% = plants have died, 0% = like control plants); for Pre-emergence action against ABUTH (herbicidal activity in percent): dosage 20 g/ha, scored visually after 3 weeks vs untreated controls, 100% = plants have died, 0% = like control plants; for pest or weed control at 80 g/ha: Abutilon theophrasti, 504 h
From the text: as §1

[6] = tested on: MATIN; experiment: Pre-emergence herbicidal action against MATIN; assay type: in vivo, Matricaria inodora; details: for pest or weed control at 80 g/ha: Tripleurospermum inodorum, 504 h
From the text: as §1

[7] = tested on: ECHCG; experiment: Pre-emergence herbicidal action against ECHCG; assay type: in vivo, Echinochloa crus-galli; details: 80 g/ha
From the text: as §1

[8] = tested on: PHBPU; experiment: Post-emergence herbicidal action against PHBPU; assay type: in vivo, Pharbitis purpurea; details: dosage 20 g/ha
Description: as §2

[9] = tested on: AMARE; experiment: Pre-emergence herbicidal action against AMARE; assay type: in vivo, Amaranthus retroflexus; details: for pest or weed control at 20 g/ha / pest or weed control at 80 g/ha: Amaranthus retroflexus, 504 h
From the text: as §1

[10] = tested on: ECHCG; experiment: Post-emergence herbicidal action against ECHCG; assay type: in vivo, Echinochloa crus-galli; details: for pest or weed control at 20 g/ha: Echinochloa crus-galli, 504 h
Description: as §2

[11] = tested on: VERPE; experiment: Pre-emergence herbicidal action against VERPE; assay type: in vivo, Veronica persica; details: dosage 80 g/ha; for pest or weed control at 80 g/ha: Veronica persica, 504 h
From the text: as §1

[12] = tested on: ABUTH; experiment: Post-emergence herbicidal action against ABUTH; assay type: in vivo, Abutilon theophrasti; details: visual assessment about 3 weeks after treatment vs untreated controls
Description: as §2

[13] = tested on: DIGSA; experiment: Post-emergence herbicidal action against DIGSA; assay type: in vivo, Digitaria sanguinalis
Description: as §2

[14] = tested on: MATIN; experiment: Post-emergence herbicidal action against MATIN; assay type: in vivo, Matricaria inodora; details: dosage 20 g/ha
Description: as §2

[15] = tested on: DIGSA; experiment: Pre-emergence herbicidal action against DIGSA; assay type: in vivo, Digitaria sanguinalis
From the text: as §1

[16] = tested on: AVEFA; experiment: Pre-emergence herbicidal action against AVEFA; assay type: in vivo, Avena fatua; details: 80 g/ha, pre-emergence
From the text: as §1

[17] = tested on: SETVI; experiment: Post-emergence herbicidal action against SETVI; assay type: in vivo, Setaria viridis; details: for pest or weed control at 20 g/ha: Setaria viridis, 504 h
Description: as §2

[18] = tested on: ALOMY; experiment: Post-emergence herbicidal action against ALOMY; assay type: in vivo, Alopecurus myosuroides; details: dosage 20 g/ha, visual assessment about 3 weeks after treatment vs untreated controls
Description: as §2

[19] = 20 g/ha, scored visually after 3 weeks vs untreated controls, 100% = plants have died, 0% = like control plants
[20] = 80 g/ha, scored visually after 3 weeks vs untreated controls (100% = plants have died, 0% = like control plants)
[21] = 80 g/ha, scored visually after 3 weeks vs untreated controls, 100% = plants have died, 0% = like control plants

Compound | Pre-emergence action against ALOMY (herbicidal activity) [1] | Post-emergence action at 20 g/ha against AMARE in % [2] | Pre-emergence action against VIOTR in % ([3]; dosage 80 g/ha) | Pre-emergence action against SETVI in % [4] | Pre-emergence action against ABUTH (herbicidal activity) [5] | Pre-emergence action against ABUTH (herbicidal activity in percent) [5] | Pre-emergence action against MATIN in % ([6]; dosage 20 g/ha) | Pre-emergence action against MATIN in % ([6]; dosage 80 g/ha) | Pre-emergence action against ECHCG in % [7] | Post-emergence action against PHBPU in % [8] | Pre-emergence action against AMARE in % [9, 19] | Pre-emergence action against AMARE in % [9, 20] | Post-emergence action against ECHCG in % ([10]; dosage 20 g/ha) | Pre-emergence action against VERPE in % [11] | Post-emergence action against ABUTH in % ([12]; dosage 20 g/ha) | Post-emergence action against MATIN in % [14] | Pre-emergence action against DIGSA in % ([15]; dosage 20 g/ha) | Pre-emergence action against DIGSA in % ([15]; dosage 80 g/ha) | other results
Cc1nnc(NC(=O)c2ccc(C(F)F)c(C(=O)NC(C)C3CC3)c2Br)o1 (stereo not shown) [Example 6-267] | 80% | 90% | 80% | 80% | 100% | 90% | 90% | 100% | 80% | 80% | 90% | 100% | 90% | 90% | 80% |  |  |  | 
Cc1nnc(NC(=O)c2ccc(C(F)F)c(C(=O)NC(C)C)c2Cl)o1 [Example 6-260] | 90% | 80% |  | 100% | 100% | 90% | 100% | 100% | 100% | 90% | 100% | 100% | 90% | 90% | 90% | 80% | 100% | 100% | Post-emergence action against DIGSA in % ([13]; 5 g/ha): 90%; Post-emergence action against DIGSA ([13]; 20 g/ha): 90%; Post-emergence action against ECHCG in % ([10]; dosage 5 g/ha): 90%
CCNC(=O)c1c(Cl)ccc(C(=O)Nc2nnnn2C)c1Br [Example 1-350] |  |  |  |  |  |  |  |  |  |  |  |  |  |  |  |  |  |  | pest or weed control at 80 g/ha ([1]; Alopecurus myosuroides, 504 h): 100%; pest or weed control at 20 g/ha [2]: 100%; pest or weed control at 80 g/ha ([16]; Avena fatua, 504 h): 90%; pest or weed control at 80 g/ha ([3]; dosage 80 g/ha): 100%; pest or weed control at 20 g/ha ([17]; dosage 20 g/ha): 80%; pest or weed control at 80 g/ha ([4]; Setaria viridis, 504 h): 100%; pest or weed control at 80 g/ha [5]: 100%; pest or weed control at 80 g/ha ([6]; dosage 80 g/ha): 90%; pest or weed control at 80 g/ha ([7]; Echinochloa crus-galli, 504 h): 100%; pest or weed control at 20 g/ha [9, 19]: 100%; pest or weed control at 80 g/ha [9, 21]: 100%; pest or weed control at 20 g/ha ([10]; dosage 20 g/ha): 80%; pest or weed control at 80 g/ha [11]: 80%
Cc1nnc(NC(=O)c2ccc(C(F)F)c(C(=O)NCc3cccs3)c2Cl)o1 [Example 6-264] |  | 80% |  | 80% |  |  |  |  |  |  | 80% | 100% |  | 90% |  |  |  |  | Post-emergence action against DIGSA ([13]; 20 g/ha): 80%
CCn1nnnc1NC(=O)c1ccc(C(F)F)c(C(=O)Nc2ccccc2)c1Cl [Example 2-161] |  | 100% | 100% |  | 100% | 90% | 80% | 90% |  | 80% | 90% | 100% |  | 80% | 80% | 80% |  |  | 
Cc1c(C(=O)Nc2nnnn2C)ccc(C(F)(F)F)c1C(=O)NC1COC1 [Example 1-41] |  |  |  |  |  |  |  |  |  |  |  |  |  |  |  |  |  |  | pest or weed control at 20 g/ha [2]: 90%; pest or weed control at 80 g/ha ([3]; dosage 80 g/ha): 100%; pest or weed control at 5 g/ha ([13]; Digitaria sanguinalis, 504 h, 5 g/ha): 80%; pest or weed control at 20 g/ha ([13]; Digitaria sanguinalis, 504 h, 20 g/ha): 90%; pest or weed control at 20 g/ha ([17]; dosage 20 g/ha): 80%; pest or weed control at 80 g/ha [5]: 100%; pest or weed control at 80 g/ha ([6]; dosage 80 g/ha): 100%; pest or weed control at 20 g/ha [9, 19]: 90%; pest or weed control at 80 g/ha [9, 21]: 100%; pest or weed control at 20 g/ha ([10]; dosage 20 g/ha): 90%; pest or weed control at 80 g/ha [11]: 90%; pest or weed control at 5 g/ha ([12]; Abutilon theophrasti, 504 h, dosage 5 g/ha): 80%; pest or weed control at 20 g/ha ([12]; Abutilon theophrasti, 504 h, dosage 20 g/ha): 80%; pest or weed control at 80 g/ha ([15]; Digitaria sanguinalis, 504 h, dosage 80 g/ha): 100%
CCn1nnnc1NC(=O)c1ccc(C(F)F)c(C(=O)NCC(F)(F)F)c1Br [Example 2-229] | 90% | 90% | 100% | 100% | 100% | 80% | 100% | 100% | 80% | 90% | 100% | 100% | 90% | 80% | 80% | 80% |  | 100% | Pre-emergence action against AVEFA in % [16]: 90%; Post-emergence action against SETVI in % ([17]; dosage 20 g/ha): 80%
Cc1nnc(NC(=O)c2ccc(Br)c(C(=O)NCC(F)F)c2Cl)o1 [Example 6-145] | 90% |  |  | 100% | 100% | 100% |  |  | 90% | 80% | 90% | 100% |  |  |  |  | 90% | 100% | Post-emergence action against ALOMY in % [18]: 80%; Post-emergence action against SETVI in % ([17]; dosage 5 g/ha): 80%; Post-emergence action against SETVI in % ([17]; dosage 20 g/ha): 90%
Cn1nnnc1NC(=O)c1ccc(C(F)(F)F)c(C(=O)NCc2cccs2)c1Cl [Example 1-144] |  | 90% | 100% | 80% |  |  | 90% | 90% | 100% |  | 90% | 100% |  | 80% |  |  | 90% | 90% | Pre-emergence action against VIOTR in % ([3]; dosage 20 g/ha): 80%
